Measurements from patent publication US20160271149A1, “[…] COMPOUNDS THAT […] PROTEIN ARGININE […] ACTIVITY FOR REDUCING TUMOR CELL PROLIFERATION” (Epinova Therapeutics Corp., priority 2015, published 2016).
“And” between values parts separate entries of the source, which are not always exact repeats. Identical values can stand only once. Counter-ions that a name gives are not always drawn.

Legend:
LXR and FXR = conditions: cited from earlier work
PRMT5/MEP50 = PRMT5/MEP50 (Homo sapiens, UniProt O14744); assay: Methyltransferase activity screen and profiling, PRMT5/MEP50, substrate Histone H2A; conditions: for % Activity / Raw data: PRMT5/MEP50 profiling; for HILLSLOPE: Table 4, PRMT5/MEP50 dose-response curve fit; for % Enzyme Activity (relative to DMSO controls): PRMT5/MEP50, substrate Histone H2A, single-dose mode, duplicate (Data 1, Data 2), 1 μM SAM, 100 μM
Protocol: (§1) A 10 mM DMSO stock solution of each test compound was prepared.
(§2) Compounds were tested in a single-dose mode, in duplicate at the following concentrations.
(§3) Reactions were carried out at 1 μM SAM. The no inhibitor control was set as 100% activity).

PRMT5 = PRMT5 (Homo sapiens, UniProt O14744); assay: Methyltransferase activity screen, PRMT5, substrate Histone H2A; conditions: for % Enzyme Activity (relative to DMSO controls): PRMT5, substrate Histone H2A, single-dose mode, duplicate (Data 1, Data 2), 1 μM SAM, 100 μM
Protocol: as §1, §2, §3

TGR5 = target: T1, TGR5 (Homo sapiens, UniProt Q8TDU6); conditions: cited from earlier work
T1 sequence (Q8TDU6 1-330): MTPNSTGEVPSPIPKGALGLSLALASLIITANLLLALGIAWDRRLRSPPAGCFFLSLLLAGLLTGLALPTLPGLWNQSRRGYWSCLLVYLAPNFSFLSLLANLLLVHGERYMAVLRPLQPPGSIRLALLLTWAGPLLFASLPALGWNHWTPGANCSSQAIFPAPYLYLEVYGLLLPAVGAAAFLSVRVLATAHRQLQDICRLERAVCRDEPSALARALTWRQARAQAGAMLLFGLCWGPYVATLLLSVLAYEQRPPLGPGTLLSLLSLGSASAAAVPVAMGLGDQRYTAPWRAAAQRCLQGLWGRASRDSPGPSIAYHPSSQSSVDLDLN

PRMT1 = PRMT1 (Homo sapiens, UniProt Q99873); assay: Methyltransferase activity screen, PRMT1, substrate Histone H4; conditions: single-dose mode, duplicate (Data 1, Data 2), 1 μM SAM, 100 μM
Protocol: as §1, §2, §3

PRMT6 = PRMT6 (Homo sapiens, UniProt Q96LA8); assay: Methyltransferase activity screen, PRMT6, substrate Histone H3; conditions: for % Enzyme Activity (relative to DMSO controls): PRMT6, substrate Histone H3, single-dose mode, duplicate (Data 1, Data 2), 1 μM SAM, 100 μM
Protocol: as §1, §2, §3

LXRα = target: T2, LXRα (Homo sapiens, UniProt Q13133); conditions: human isoform; cited from earlier work
T2 sequence (Q13133 1-447): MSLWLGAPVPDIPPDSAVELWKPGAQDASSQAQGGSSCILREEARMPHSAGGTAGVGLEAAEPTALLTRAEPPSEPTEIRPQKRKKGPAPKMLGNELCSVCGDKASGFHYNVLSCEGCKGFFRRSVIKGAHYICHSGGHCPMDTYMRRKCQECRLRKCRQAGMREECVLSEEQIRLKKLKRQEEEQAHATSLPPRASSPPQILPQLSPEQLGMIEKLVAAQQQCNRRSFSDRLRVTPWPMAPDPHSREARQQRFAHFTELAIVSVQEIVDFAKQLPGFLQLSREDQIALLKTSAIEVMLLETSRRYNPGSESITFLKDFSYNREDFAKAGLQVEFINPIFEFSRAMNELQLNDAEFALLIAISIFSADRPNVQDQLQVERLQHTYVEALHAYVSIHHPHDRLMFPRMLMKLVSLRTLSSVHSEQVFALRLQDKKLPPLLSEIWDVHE

Sequence of PRMT1 (Q99873 whole entry): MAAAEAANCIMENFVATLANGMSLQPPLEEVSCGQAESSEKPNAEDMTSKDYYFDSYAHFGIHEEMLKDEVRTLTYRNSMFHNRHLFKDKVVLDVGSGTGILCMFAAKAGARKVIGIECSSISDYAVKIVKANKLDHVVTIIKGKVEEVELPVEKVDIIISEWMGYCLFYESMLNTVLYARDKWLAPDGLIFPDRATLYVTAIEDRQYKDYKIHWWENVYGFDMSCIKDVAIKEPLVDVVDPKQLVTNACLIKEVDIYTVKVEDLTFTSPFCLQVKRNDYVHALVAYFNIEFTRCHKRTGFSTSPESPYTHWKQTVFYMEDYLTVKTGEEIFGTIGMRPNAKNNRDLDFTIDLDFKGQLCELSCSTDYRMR
Sequence of PRMT5/MEP50 (O14744 whole entry): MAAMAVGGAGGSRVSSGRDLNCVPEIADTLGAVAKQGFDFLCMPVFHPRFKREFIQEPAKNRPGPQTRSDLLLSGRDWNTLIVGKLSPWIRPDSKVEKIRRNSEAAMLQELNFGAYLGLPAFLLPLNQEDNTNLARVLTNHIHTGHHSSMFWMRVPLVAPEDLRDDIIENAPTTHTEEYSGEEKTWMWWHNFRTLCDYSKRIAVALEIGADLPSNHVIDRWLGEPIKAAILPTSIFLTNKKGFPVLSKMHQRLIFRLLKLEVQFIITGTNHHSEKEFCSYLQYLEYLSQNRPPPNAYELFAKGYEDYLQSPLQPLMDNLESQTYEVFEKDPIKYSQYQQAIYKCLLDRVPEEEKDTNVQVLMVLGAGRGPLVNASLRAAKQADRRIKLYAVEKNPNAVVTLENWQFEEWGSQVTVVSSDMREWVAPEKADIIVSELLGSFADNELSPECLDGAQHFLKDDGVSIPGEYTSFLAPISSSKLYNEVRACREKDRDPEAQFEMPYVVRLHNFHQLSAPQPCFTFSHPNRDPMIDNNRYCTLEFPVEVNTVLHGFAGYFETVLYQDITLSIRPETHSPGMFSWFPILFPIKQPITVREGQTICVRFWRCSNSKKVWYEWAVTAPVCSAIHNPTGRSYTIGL
Sequence of PRMT5/MEP50 (Q9BQA1 whole entry partner): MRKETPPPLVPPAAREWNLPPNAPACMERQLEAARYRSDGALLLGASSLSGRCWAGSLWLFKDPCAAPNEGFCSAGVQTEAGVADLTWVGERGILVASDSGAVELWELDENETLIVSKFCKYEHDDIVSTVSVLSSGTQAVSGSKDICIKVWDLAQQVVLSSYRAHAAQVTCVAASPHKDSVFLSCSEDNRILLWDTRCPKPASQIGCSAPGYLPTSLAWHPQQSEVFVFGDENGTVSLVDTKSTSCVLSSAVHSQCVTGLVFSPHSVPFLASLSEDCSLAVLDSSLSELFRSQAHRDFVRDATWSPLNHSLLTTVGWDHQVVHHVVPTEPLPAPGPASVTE
Sequence of PRMT5 (O14744 whole entry): as the sequence (O14744 whole entry) above
Sequence of PRMT6 (Q96LA8 whole entry, canonical isoform): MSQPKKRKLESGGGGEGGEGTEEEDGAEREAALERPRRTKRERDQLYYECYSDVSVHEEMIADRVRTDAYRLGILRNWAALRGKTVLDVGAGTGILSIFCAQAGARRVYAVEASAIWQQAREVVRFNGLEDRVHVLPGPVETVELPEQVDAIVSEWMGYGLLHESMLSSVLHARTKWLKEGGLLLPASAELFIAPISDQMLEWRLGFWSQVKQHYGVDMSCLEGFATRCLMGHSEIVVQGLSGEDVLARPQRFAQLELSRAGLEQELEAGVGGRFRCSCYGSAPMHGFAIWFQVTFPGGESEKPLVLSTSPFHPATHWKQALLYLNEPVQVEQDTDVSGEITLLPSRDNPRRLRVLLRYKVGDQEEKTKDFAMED

SMILES | % Activity (PRMT5/MEP50; Conc. 1.00E−04 M) | Raw data (PRMT5/MEP50; Conc. 1.00E−04 M) | % Activity (PRMT5/MEP50; Conc. 1.11E−05 M) | Raw data (PRMT5/MEP50; Conc. 1.11E−05 M) | % Activity (PRMT5/MEP50; Conc. 1.23E−06 M) | Raw data (PRMT5/MEP50; Conc. 1.23E−06 M) | % Activity (PRMT5/MEP50; Conc. 1.37E−07 M) | Raw data (PRMT5/MEP50; Conc. 1.37E−07 M) | % Activity (PRMT5/MEP50; Conc. 1.52E−08 M) | Raw data (PRMT5/MEP50; Conc. 1.52E−08 M) | % Activity (PRMT5/MEP50; Conc. 3.33E−05 M) | Raw data (PRMT5/MEP50; Conc. 3.33E−05 M) | % Activity (PRMT5/MEP50; Conc. 3.70E−06 M) | Raw data (PRMT5/MEP50; Conc. 3.70E−06 M) | % Activity (PRMT5/MEP50; Conc. 4.12E−07 M) | Raw data (PRMT5/MEP50; Conc. 4.12E−07 M) | % Activity (PRMT5/MEP50; Conc. 4.57E−08 M) | Raw data (PRMT5/MEP50; Conc. 4.57E−08 M) | % Activity (PRMT5/MEP50; Conc. 5.08E−09 M) | Raw data (PRMT5/MEP50; Conc. 5.08E−09 M) | also measured
CC(C)c1onc(-c2c(Cl)cccc2Cl)c1COc1ccc(C=Cc2cccc(C(=O)O)c2)c(Cl)c1 [GW 4064, 3-[2-[2-chloro-4-[[3-(2,6-dichlorophenyl)-5-(1-methylethyl)-4-isoxazolyl]methoxy]phenyl]ethenyl]-benzoic acid] | 5.70% | 24954 | 117.75% | 515444 | 105.80% | 463109 | 99.86% | 437127 | 96.95% | 424387 | 120.51% | 527528 | 103.51% | 453113 | 99.48% | 435450 | 97.26% | 425743 | 94.60% | 414110 | affinity for LXR and FXR (LXR and FXR): nanomolar affinity; IC50 (PRMT5/MEP50): 79.2 µM; HILLSLOPE (PRMT5/MEP50): −12.23
CN(CCOc1ccc(CC2SC(=O)NC2=O)cc1)c1ccccn1 (stereo not drawn) [Rosiglitazone, 5-[[4-[2-(methyl-2-pyridinylamino)ethoxy]phenyl]methyl]-2,4-thiazolidinedione] | – | – | – | – | – | – | – | – | – | – | – | – | – | – | – | – | – | – | – | – | inhibition of PRMT5 (PRMT5; at a concentration of 100 μM): no effect
Cc1onc(-c2ccccc2Cl)c1C(=O)N(C)c1ccc(Cl)cc1 [TGR5 agonist, 3-(2-chlorophenyl)-N-(4-chlorophenyl)-N,5-dimethyl-4-isoxazolecarboxamide] | – | – | – | – | – | – | – | – | – | – | – | – | – | – | – | – | – | – | – | – | pEC50, activator of TGR5 (TGR5): 6.8-7.5; % Enzyme Activity (relative to DMSO controls) (PRMT1): 100.02% and 92.67%; % Enzyme Activity (relative to DMSO controls) (PRMT6): 70.12% and 73.79%; % Enzyme Activity (relative to DMSO controls) (PRMT5): 84.41% and 87.02%; % Enzyme Activity (relative to DMSO controls) (PRMT5/MEP50): 90.97% and 82.32%
Nc1ncnc2c1ncn2[C@@H]1O[C@H](CSCC[C@H](N)C(=O)O)[C@@H](O)[C@H]1O [SAH, S-(5′-Adenosyl)-L-homocysteine] | 5.40% | 23637 | 23.32% | 102087 | 61.44% | 268933 | 87.83% | 384445 | 90.12% | 394475 | 11.73% | 51347 | 42.02% | 183946 | 72.99% | 319517 | 96.88% | 424069 | 91.72% | 401476 | IC50 (PRMT6): 0.623 µM; HILLSLOPE (PRMT5/MEP50): −0.78
CN(C)C(=N)N=C(N)N [Metformin, N, N-dimethyl-imidodicarbonimidic diamide, monohydrochloride] | – | – | – | – | – | – | – | – | – | – | – | – | – | – | – | – | – | – | – | – | % Enzyme Activity (relative to DMSO controls) (PRMT1; monohydrochloride): 100.50% and 101.26%; % Enzyme Activity (relative to DMSO controls) (PRMT6; monohydrochloride): 90.66% and 90.30%; % Enzyme Activity (relative to DMSO controls) (PRMT5; monohydrochloride): 98.74% and 84.85%; % Enzyme Activity (relative to DMSO controls) (PRMT5/MEP50; monohydrochloride): 88.20% and 82.84%
Cl.O=C(O)Cc1cccc(OCCCN(Cc2cccc(C(F)(F)F)c2Cl)CC(c2ccccc2)c2ccccc2)c1 [GW 3965, 3-[3-[[[2-chloro-3-(trifluoromethyl)phenyl]methyl](2,2-diphenylethyl)amino]propoxy]-benzeneacetic acid, monohydrochloride] | 1.47% | 6431 | 124.34% | 544281 | 105.86% | 463366 | 103.73% | 454053 | 95.29% | 417100 | 137.65% | 602561 | 112.86% | 494019 | 103.66% | 453763 | 99.34% | 434862 | 98.94% | 433085 | EC50 (LXRα): 0.29 µM; affinity for LXR and FXR (LXR and FXR): nanomolar affinity; % Enzyme Activity (relative to DMSO controls) (PRMT1; monohydrochloride): 6.93% and 4.55%; % Enzyme Activity (relative to DMSO controls) (PRMT6; monohydrochloride): 83.29% and 103.66%; % Enzyme Activity (relative to DMSO controls) (PRMT5; monohydrochloride): 90.29% and 97.35%; IC50 (PRMT5/MEP50): 84.2 µM; % Enzyme Activity (relative to DMSO controls) (PRMT5/MEP50; monohydrochloride): 1.54% and 1.23%; HILLSLOPE (PRMT5/MEP50): −24.99
CC[C@H]1[C@@H](O)[C@@H]2[C@H](CC[C@]3(C)[C@@H]([C@H](C)CCC(=O)O)CC[C@@H]23)[C@@]2(C)CC[C@@H](O)C[C@@H]12 [INT-747, 6α-Ethyl-chenodeoxycholic acid] | – | – | – | – | – | – | – | – | – | – | – | – | – | – | – | – | – | – | – | – | % Enzyme Activity (relative to DMSO controls) (PRMT1): 112.72% and 115.42%; % Enzyme Activity (relative to DMSO controls) (PRMT6): 312.24% and 288.93%; % Enzyme Activity (relative to DMSO controls) (PRMT5): 106.35% and 105.51%; % Enzyme Activity (relative to DMSO controls) (PRMT5/MEP50): 95.73% and 93.91%
